Source: article PMC6753678, “Fueling Open Innovation for Malaria Transmission-Blocking Drugs: Hundreds of Molecules Targeting Early Parasite Mosquito Stages” (Frontiers in Microbiology, 2019)
Read-outs that look alike come from different tables or passages of the source.

Key:
[1] = tested on: P. falciparum late stage (stages IV-V) gametocytes; assay: P. falciparum late stage gametocyte ATP depletion assay (Pf GC-ATP); settings: 1: YES, 0: NO
[2] = tested on: HepG2 cells; assay: HepG2 cytotoxicity assay
How it was run: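 Cells at 2,500 per well in MEM with 10% fetal bovine serum and 1% NEAA were exposed to test compounds for 48 h at 37°C, 5% CO2. Viability was read by fluorescence, with percent inhibition calculated against 50 μM doxorubicin (positive) and DMSO (negative) controls.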

[3] = tested on: HepG2 cells; settings: ref Almela et al 2016, cited from earlier work
[4] = tested on: P. falciparum late stage (stages IV-V) gametocytes; set-up: method as in Almela et al 2016; settings: ref Almela et al 2016, read-out: Pf GCT ATP IC50, cited from earlier work
[5] = unified HepG2 value across the three screens
[6] = HepG2 data listed with Pf GCT ATP screen
[7] = P. falciparum late stage gametocyte ATP assay
[8] = >10-fold selectivity over cytotoxicity
[9] = HepG2 cytotoxicity unified across screens, >25 set to 25.00
[10] = reported with the Pf GCT ATP screen
[11] = P. falciparum late stage gametocyte ATP assay, TCAMS screen

SMILES | Is compound selective in assay? Pf GC-ATP active? [1] | Unified cytotox [2, 5] | HepG2 cytoxicity [3, 6] | IC50 [4, 7] | Is compound selective in assay? Pf GC-ATP active? [1, 8] | Unified cytotox [2, 9] | HepG2 cytoxicity [3, 10] | IC50 [4, 11] | Unified cytotox ([2]; HepG2 cytotoxicity unified across the three screens) | HepG2 cytoxicity ([3]; value reported with the Pf GCT ATP screen) | IC50 ([4]; TCAMS screen comparison)
CCN(CC)CCCOC(=O)c1ccc2c(c1)-c1ccc(C(=O)OCCCN(CC)CC)c3cccc-2c13.Cl [TCMDC-125491] | 1 (1: YES) | 20.00 µM | 20 µM | 140 nM | – | – | – | – | – | – | –
CC(C)c1ccc(NC(=S)NN=Cc2ccccn2)cc1 [TCMDC-125520] | 1 (1: YES) | 12.80 µM | 12.8 µM | 10 nM | – | – | – | – | – | – | –
O=[N+]([O-])c1ccc(C=NNc2nc(Nc3ccccc3)nc(Nc3ccccc3)n2)o1 [TCMDC-125802] | 1 (1: YES) | 14.82 µM | 14.82 µM | 1310 nM | – | – | – | – | – | – | –
Cc1cccnc1Nc1nc(-c2ccccn2)cs1 [TCMDC-125846] | 1 (1: YES) | 3.02 µM | 3.02 µM | 100 nM | – | – | – | – | – | – | –
COc1cccc(CCNCCCCCCNCCc2ccc(Cl)cc2)c1.Cl [TCMDC-131284] | 1 (1: YES) | 6.10 µM | 6.1 µM | 530 nM | – | – | – | – | – | – | –
CCNC1=NC2=C(CC(C(C)(C)C)CC2)C2(CCC(C(C)(C)C)CC2)S1.Cl (stereo not shown) [TCMDC-131288] | 0 (0: NO) | 14.30 µM | 14.3 µM | 3000 nM | – | – | – | – | – | – | –
CCN(CC)/C(=N\CCCCCC/N=C(\NC(=N)c1ccc(Cl)cc1)N(CC)CC)NC(=N)c1ccc(Cl)cc1 [TCMDC-131806] | 1 (1: YES) | 43.60 µM | 43.6 µM | 840 nM | – | – | – | – | – | – | –
SC(=Nc1ccc2c(c1)OCCO2)NN=Cc1ccccn1 [TCMDC-132009] | 0 (0: NO) | 3.28 µM | 3.28 µM | 830 nM | – | – | – | – | – | – | –
COc1ccc(CCNc2nc(NCc3ccccc3)c3cc(OC)c(OC)cc3n2)cc1OC [TCMDC-132017] | 0 (0: NO) | 4.58 µM | 4.58 µM | 5600 nM | – | – | – | – | – | – | –
COc1cc2c(c(Cl)c1OC)CCN(C(=O)C(F)(F)F)CC2c1ccccc1 (stereo not shown) [TCMDC-132071] | – | – | – | – | 1 (1: YES) | 25.00 µM | >25 µM | 1950 nM | – | – | –
Fc1ccc2[nH]c(-c3ccc(-c4ccc(CNCCN5CCNCC5)cc4)s3)nc2c1.O=C(O)C(F)(F)F [TCMDC-132869] | – | – | – | – | 1 (1: YES) | 25.00 µM | >25 µM | 530 nM | – | – | –
Nc1ncc(-c2ccc3nccc(-c4ccncc4)c3c2)cc1S(=O)(=O)N1CCCCC1 [TCMDC-134265] | – | – | – | – | 1 (1: YES) | 25.00 µM | >25 µM | 2070 nM | – | – | –
COc1cccc(Nc2c(C(N)=O)cnc3ccc(-c4ccc([S+](C)[O-])cc4)cc23)c1.O=C(O)C(F)(F)F (stereo not shown) [TCMDC-135184] | – | – | – | – | 1 (1: YES) | 25.00 µM | >25 µM | 1430 nM | – | – | –
COc1cc(NC(=O)c2sc(-c3ccc(Cl)cc3)cc2NC(=O)c2cccnc2)ccc1OCCN1CCCC1 [TCMDC-135397] | – | – | – | – | 1 (1: YES) | 25.00 µM | >25 µM | 610 nM | – | – | –
Cc1ccc(-n2c(C)nc3c(Nc4ccc(-c5ccncc5)cc4)ncnc32)c(C)c1 [TCMDC-136289] | – | – | – | – | 1 (1: YES) | 25.00 µM | >25 µM | 530 nM | – | – | –
CS(=O)(=O)c1cccc(-c2cnc3[nH]cc(-c4cccc(CCN)c4)c3c2)c1 [TCMDC-136307] | – | – | – | – | 1 (1: YES) | 25.00 µM | >25 µM | 470 nM | – | – | –
CCn1ncc2c(NC3CCOCC3)c(CNC(=O)c3ccnn3C)c(C)nc21 [TCMDC-136560] | – | – | – | – | 1 (1: YES) | 25.00 µM | >25 µM | 1640 nM | – | – | –
Cl.Ic1cc(CNC2CCCCC2)ccc1OCc1cccc(COc2ccc(CNC3CCCCC3)cc2I)c1 [TCMDC-137261] | – | – | – | – | 1 (1: YES) | 25.00 µM | >25 µM | 330 nM | – | – | –
COc1ccc2nc3cc(Cl)ccc3c(NCCCCCCNc3c4ccc(Cl)cc4nc4ccc(OC)cc34)c2c1.Cl.Cl.Cl.Cl [TCMDC-137503] | – | – | – | – | 1 (1: YES) | 25.00 µM | >25 µM | 50 nM | – | – | –
CC(C)CCNC(=N)Nc1ccc(OCCCCCOc2ccc(NC(=N)NCCC(C)C)cc2)cc1 [TCMDC-137614] | – | – | – | – | 1 (1: YES) | 25.00 µM | >25 µM | 510 nM | – | – | –
CC(C)CCNC(=N)Nc1ccc(OCCCOc2ccc(NC(=N)NCCC(C)C)cc2)cc1 [TCMDC-137615] | – | – | – | – | 1 (1: YES) | 25.00 µM | >25 µM | 290 nM | – | – | –
CC(=NNC(=S)NCCc1ccccn1)c1ccccn1 [TCMDC-137895] | – | – | – | – | 1 (1: YES) | 25.00 µM | >25 µM | 1490 nM | – | – | –
COc1cc2nc(NCC3CCN(c4nc(N)c5cc(OC)c(OC)cc5n4)CC3)nc(N)c2cc1OC [TCMDC-138723] | – | – | – | – | 1 (1: YES) | 25.00 µM | >25 µM | 1420 nM | – | – | –
CCN(CC)Cc1cc(Nc2c3ccc(Cl)cc3nc3cccc(OC)c23)ccc1O.Cl [TCMDC-139222] | – | – | – | – | 1 (1: YES) | 25.00 µM | >25 µM | 1000 nM | – | – | –
N=C(N)Nc1nc(-c2ccc(NC(=O)Nc3cccc(-c4csc(NC(=N)N)n4)c3)cc2)cs1 [TCMDC-139559] | – | – | – | – | 1 (1: YES) | 25.00 µM | >25 µM | 1430 nM | – | – | –
CC(Cc1ccc(CNC(=O)NCc2ccc(CC(C)NCCc3cccc(Cl)c3)cc2)cc1)NCCc1cccc(Cl)c1 (stereo not shown) [TCMDC-139648] | 0 (0: NO) | – | – | – | – | – | – | – | 4.18 µM | 4.18 µM | 610 nM
CC(C)CNCc1cccc(-c2cccc(CNCCCN3CCN(C)CC3)c2)c1.O=C(O)C(F)(F)F [TCMDC-140483] | – | – | – | – | 1 (1: YES) | 25.00 µM | >25 µM | 1560 nM | – | – | –
CC(C)CNCc1cccc(-c2ccc(CN(CCCN3CCN(C)CC3)C(=O)CCC3CCCC3)cc2)c1.O=C(O)C(F)(F)F [TCMDC-140558] | – | – | – | – | 1 (1: YES) | 25.00 µM | >25 µM | 700 nM | – | – | –
